Test results published in patent US7273848B2, “Apolipoprotein A-I agonists and their use to treat dyslipidemic disorders” (priority 1997, dated 2007).
Non-standard residues stand in square brackets, D forms with d. Residues, ends and D or L forms follow the SMILES beside them. No end group written: not given here. 1Nal = N[C@@H](Cc1cccc2ccccc12)C(=O)O; Aib = CC(C)(N)C(=O)O

Tests used:
[1] = target: T1, LCAT (purified from human plasma) (Homo sapiens, UniProt P04180); assay: LCAT activation assay; type: biochemical; settings: LCAT activation as compared with native human ApoA-I (= 100%), equivalent masses
T1 construct: from tissue; host or cells: human plasma
T1 sequence (P04180 25-440): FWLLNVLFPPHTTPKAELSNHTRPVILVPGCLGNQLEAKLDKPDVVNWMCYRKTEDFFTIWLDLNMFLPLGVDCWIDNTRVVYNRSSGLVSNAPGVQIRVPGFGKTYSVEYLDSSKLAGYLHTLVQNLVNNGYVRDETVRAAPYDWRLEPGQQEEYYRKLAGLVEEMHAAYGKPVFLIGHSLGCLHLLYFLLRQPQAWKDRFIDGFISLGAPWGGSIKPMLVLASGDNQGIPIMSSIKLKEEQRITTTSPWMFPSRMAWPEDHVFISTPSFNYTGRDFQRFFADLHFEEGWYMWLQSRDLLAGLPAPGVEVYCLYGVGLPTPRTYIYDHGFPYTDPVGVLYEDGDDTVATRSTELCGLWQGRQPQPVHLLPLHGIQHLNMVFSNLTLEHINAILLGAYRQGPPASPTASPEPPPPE
How it was run: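 Substrate SUVs of EPC or POPC with 14C-cholesterol (20:1 molar ratio), in 10 mM Tris, 0.14 M NaCl, 1 mM EDTA, pH 7.4, were preincubated with peptide or equal mass of plasma ApoA-I. Reaction started with human plasma LCAT; activation was measured as cholesterol-to-ester conversion relative to ApoA-I (100%).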

[2] = Circular dichroism helicity determination; type: physicochemical; settings: percent helicity; for He (%) TFE: 5 μM peptide, 90% vol TFE; for He (%) TFE / He (%) SUVs: 37° C.; for He (%) free: unbound peptide 5 μM in 5 mM phosphate buffer, pH 7.4, 37° C.; for He (%) SUVs: peptide-SUV complexes (20:1 EPC:Chol., Ri=30 and Ri=50); for He (%) mics: peptide-micelle complexes, Ri=100, 37° C.
How it was run: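 Far-UV CD (190–260 nm) at 37° C on 5 μM peptide in 5 mM phosphate pH 7.4, free, with EPC:Chol 20:1 SUVs (Ri 30 or 50), lysophosphatidylcholine micelles (Ri 100) or 90% TFE. Spectra converted to molar ellipticity per residue; helicity from 222 nm ellipticity or CONTIN fitting to reference spectra, ±5%.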

Molecule	ACTIVITY (%) LCAT [1] [%]	He (%) TFE [2] [%]	He (%) free [2] [%]	He (%) SUVs [2] [%]	He (%) mics [2] [%]
Ac-PLLDLFRELLEELKQKLK-NH2 [compound 197]	81	69	43	–	70
CC(C)C[C@H](NC(=O)[C@H](C)NC(=O)[C@H](CCC(=O)O)NC(=O)[C@H](Cc1cccc2ccccc12)NC(=O)[C@H](CC(C)C)NC(=O)[C@H](CCC(=O)O)NC(=O)[C@H](CC(N)=O)NC(=O)[C@H](CC(C)C)NC(=O)[C@H](CC(C)C)NC(=O)[C@H](CCC(=O)O)NC(=O)[C@H](CCCNC(=N)N)NC(=O)[C@H](Cc1ccccc1)NC(=O)[C@H](CC(C)C)NC(=O)[C@H](CC(=O)O)NC(=O)[C@H](CC(C)C)NC(=O)[C@@H](NC(=O)[C@@H]1CCCN1)C(C)C)C(=O)N[C@@H](CCCCN)C(=O)N[C@@H](CCC(N)=O)C(=O)N[C@@H](CCCCN)C(=O)N[C@@H](CC(C)C)C(=O)N[C@@H](CCCCN)C(=O)O [compound 27, PVLDLFRELLNELZEALKQKLK] (H-PVLDLFRELLNEL[1Nal]EALKQKLK-OH)	44	81	72	82	92
PVLELFENLLERGLDALQKKLK [peptide 154]	39	80	13	25	76
PVLDLFRELLEELKQKLK [compound 210]	46	53	20	37	63
PVLDLFRELLNELWEALKQKLK [compound 28]	40	81	82	90	98
Ac-PVLDLFRELWEELKQKLK-NH2 [compound 199]	76	79	35	80	77

More lines, now with the values ahead:

ACTIVITY (%) LCAT [1] [%]	He (%) TFE [2] [%]	He (%) free [2] [%]	He (%) SUVs [2] [%]	He (%) mics [2] [%]	Molecule
2	80	72	80	88	CC(C)C[C@H](NC(=O)[C@H](CCCCN)NC(=O)[C@H](CCC(N)=O)NC(=O)[C@H](CCCCN)NC(=O)[C@H](CC(C)C)NC(=O)[C@@H](N)CCCCN)C(=O)N[C@@H](C)C(=O)N[C@@H](CCC(=O)O)C(=O)N[C@@H](CC(C)C)C(=O)N[C@@H](CC(C)C)C(=O)N[C@@H](CCC(=O)O)C(=O)N[C@@H](CC(N)=O)C(=O)N[C@@H](CC(C)C)C(=O)N[C@@H](CC(C)C)C(=O)N[C@@H](CCC(=O)O)C(=O)N[C@@H](CCCNC(=N)N)C(=O)N[C@@H](Cc1ccccc1)C(=O)N[C@@H](CC(C)C)C(=O)N[C@@H](CC(=O)O)C(=O)N[C@@H](CC(C)C)C(=O)N[C@H](C(=O)N1CCC[C@H]1C(=O)O)C(C)C [compound 99]
19	75	38	78	72	PLFRELLNELLEALKQKLK [compound 55]
6	100	43	–	100	CC(C)C[C@H](NC(=O)[C@H](C)NC(=O)[C@H](CCC(=O)O)NC(=O)[C@H](CC(C)C)NC(=O)C(C)(C)NC(=O)[C@H](CCC(=O)O)NC(=O)[C@H](CC(N)=O)NC(=O)[C@H](CC(C)C)NC(=O)[C@H](CC(C)C)NC(=O)[C@H](CCC(=O)O)NC(=O)[C@H](CCCNC(=N)N)NC(=O)[C@H](Cc1ccccc1)NC(=O)[C@H](CCC(=O)O)NC(=O)[C@H](CC(=O)O)NC(=O)[C@H](CC(C)C)NC(=O)[C@@H](NC(=O)[C@@H]1CCCN1)C(C)C)C(=O)N[C@@H](CCCCN)C(=O)N[C@@H](CCC(N)=O)C(=O)N[C@@H](CCCCN)C(=O)N[C@@H](CC(C)C)C(=O)N[C@@H](CCCCN)C(=O)O [compound 91, PVLDEFRELLNEXLEALKQKLK] (H-PVLDEFRELLNE[Aib]LEALKQKLK-OH)
12	66	27	33	78	CC(C)C[C@H](NC(=O)[C@H](C)NC(=O)[C@H](CCC(=O)O)NC(=O)[C@H](CC(C)C)NC(=O)C(C)(C)NC(=O)[C@H](CCC(=O)O)NC(=O)[C@H](Cc1ccc(O)cc1)NC(=O)[C@H](CC(C)C)NC(=O)[C@H](CC(C)C)NC(=O)[C@H](CCC(=O)O)NC(=O)[C@H](CCCNC(=N)N)NC(=O)[C@H](Cc1ccccc1)NC(=O)[C@H](CCC(=O)O)NC(=O)[C@H](CC(=O)O)NC(=O)[C@H](CC(C)C)NC(=O)[C@@H](NC(=O)[C@@H]1CCCN1)C(C)C)C(=O)N[C@@H](CCCCN)C(=O)N[C@@H](CCC(N)=O)C(=O)N[C@@H](CCCCN)C(=O)N[C@@H](CC(C)C)C(=O)N[C@@H](CCCCN)C(=O)O [compound 70, PVLDEFRELLYEXLEALKQKLK] (H-PVLDEFRELLYE[Aib]LEALKQKLK-OH)
23	85	30	58	86	CC(C)C[C@H](NC(=O)[C@H](C)NC(=O)[C@H](CCC(=O)O)NC(=O)[C@H](CC(C)C)NC(=O)C(C)(C)NC(=O)[C@H](CCC(=O)O)NC(=O)[C@H](CC(N)=O)NC(=O)[C@H](CC(C)C)NC(=O)[C@H](CCCCN)NC(=O)[C@H](CCC(=O)O)NC(=O)[C@H](CCCNC(=N)N)NC(=O)[C@H](Cc1ccccc1)NC(=O)[C@H](CC(C)C)NC(=O)[C@H](CC(=O)O)NC(=O)[C@H](CC(C)C)NC(=O)[C@@H](NC(=O)[C@@H]1CCCN1)C(C)C)C(=O)N[C@@H](CCCCN)C(=O)N[C@@H](CCC(N)=O)C(=O)N[C@@H](CCCCN)C(=O)N[C@@H](CC(C)C)C(=O)N[C@@H](CCCCN)C(=O)O [compound 46, PVLDLFREKLNEXLEALKQKLK] (H-PVLDLFREKLNE[Aib]LEALKQKLK-OH)
0	77	–	–	–	CC(C)C[C@@H](NC(=O)[C@H](N)CCCCN)C(=O)N[C@H](CCCCN)C(=O)N[C@H](CCC(N)=O)C(=O)N[C@H](CCCCN)C(=O)N[C@H](CC(C)C)C(=O)N[C@H](C)C(=O)N[C@H](CCC(=O)O)C(=O)N[C@H](CC(C)C)C(=O)N[C@H](CC(C)C)C(=O)N[C@H](CCC(=O)O)C(=O)N[C@H](CC(N)=O)C(=O)N[C@H](CC(C)C)C(=O)N[C@H](CC(C)C)C(=O)N[C@H](CCC(=O)O)C(=O)N[C@H](CCCNC(=N)N)C(=O)N[C@H](Cc1ccccc1)C(=O)N[C@H](CC(C)C)C(=O)N[C@H](CC(=O)O)C(=O)N[C@H](CC(C)C)C(=O)N[C@@H](C(=O)N1CCC[C@@H]1C(=O)O)C(C)C [compound 107, klkqklaellenllerfldlvp]
7	69	58	64	61	PLDLFRELLNELLEALKQKLK [compound 85]
25	69	53	85	73	CC(C)C[C@H](NC(=O)[C@H](C)NC(=O)[C@H](CCC(=O)O)NC(=O)[C@H](CC(C)C)NC(=O)C(C)(C)NC(=O)[C@H](CCC(=O)O)NC(=O)[C@H](CC(N)=O)NC(=O)[C@H](CC(C)C)NC(=O)[C@H](CC(C)C)NC(=O)[C@H](CCC(=O)O)NC(=O)[C@H](CCCNC(=N)N)NC(=O)[C@H](Cc1c[nH]c2ccccc12)NC(=O)[C@H](CC(C)C)NC(=O)[C@H](CC(=O)O)NC(=O)[C@H](CC(C)C)NC(=O)[C@@H](NC(=O)[C@@H]1CCCN1)C(C)C)C(=O)N[C@@H](CCCCN)C(=O)N[C@@H](CCC(N)=O)C(=O)N[C@@H](CCCCN)C(=O)N[C@@H](CC(C)C)C(=O)N[C@@H](CCCCN)C(=O)O [compound 41, PVLDLWRELLNEXLEALKQKLK] (H-PVLDLWRELLNE[Aib]LEALKQKLK-OH)
19	78	76	84	71	PVLDLFRELLNEWLEALKQKLK [compound 54]
25	–	20	–	86	CC(C)C[C@@H](NC(=O)[C@@H](C)NC(=O)[C@@H](CCC(=O)O)NC(=O)[C@@H](CC(C)C)NC(=O)C(C)(C)NC(=O)[C@@H](CCC(=O)O)NC(=O)[C@@H](CC(N)=O)NC(=O)[C@@H](CC(C)C)NC(=O)[C@@H](CCCCN)NC(=O)[C@@H](CCC(=O)O)NC(=O)[C@@H](CCCNC(=N)N)NC(=O)[C@@H](Cc1ccccc1)NC(=O)[C@@H](CCC(=O)O)NC(=O)[C@@H](CC(=O)O)NC(=O)[C@@H](CC(C)C)NC(=O)[C@H](NC(=O)[C@H]1CCCN1)C(C)C)C(=O)N[C@H](CCCCN)C(=O)N[C@H](CCC(N)=O)C(=O)N[C@H](CCCCN)C(=O)N[C@H](CC(C)C)C(=O)N[C@H](CCCCN)C(=O)O [compound 44, pvldefreklneXlealkqklk] (H-[dP][dV][dL][dD][dE][dF][dR][dE][dK][dL][dN][dE][Aib][dL][dE][dA][dL][dK][dQ][dK][dL][dK]-OH)
